Measurements published in patent US9023857B2, “Substituted 6-(2-aminobenzylamino)purine derivatives, their use as medicaments and preparations containing these compounds” (Univerzita Palackeho V Olomouci, priority 2009, dated 2015).
Entries after “also recorded” stand apart in the source; their conditions may differ.

Tests used:
HSV-1-deltaTK = assay: Plaque number reduction assay, HSV-1-deltaTK on HFFF; assay type: cell-based; details: HSV-1 thymidine kinase (TK) deletion mutant on HFFF
HSV-1 = assay: Plaque number reduction assay, HSV-1 on HFFF; assay type: cell-based, Herpes simplex virus type 1 strain 17
[1] = system: promyelocytic leukemia HL 60; assay: In vitro cytotoxic activity (Calcein AM, 72 hours), HL 60; details: Homo sapiens, HL-60, 72 h, read-out: Cytotoxicity IC50 HL60
[2] = system: HIV promoter (pHIV-lacZ, extrachromosomal) in H1299-TAT cells; assay: β-galactosidase expression from pHIV-lacZ transiently transfected to H1299-TAT; details: H1299-TAT cells (FIG. 11)
HAd4 [3] = assay: Plaque number reduction assay, HAd4 on A549; assay type: cell-based, Human adenovirus type 4 (HAdV-4) strain RI-6
breast carcinoma MCF7 = assay: In vitro cytotoxic activity (Calcein AM, 72 hours), MCF7; details: Homo sapiens, MCF7, 72 h, read-out: Cytotoxicity IC50 MCF7
HCMV = assay: Plaque number reduction assay, HCMV on HFFF; assay type: cell-based, Human cytomegalovirus strain Toledo
[4] = system: p53-responsive reporter pRGCΔfoslacZ in murine fibroblasts T22lacZ; assay: p53-dependent transcriptional activity, β-galactosidase reporter in T22lacZ cells; assay type: cell-based; details: 5 μM
[5] = system: p53 protein in BT549 (mut p53) breast cancer cell line; assay: p53 protein expression in BT549 cells (immunoblotting); assay type: cell-based, human; details: BT549 (mutant p53), 5 μM, 6, 12 and 24 hrs
Experimental: (a) DO-1, DO-2 and 1801 monoclonal antibodies recognise the N-terminal region of p53 protein, monoclonal antibodies DO-11 and DO-12 recognise different epitopes in the core domain of p53 protein, monoclonal antibodies Bp53-10 and Pab421 recognise the C-terminal region of p53 protein. (b) Monoclonal antibody 118 recognises p21^WAF1.
For direct immunoblotting, total cellular protein lysates were prepared by harvesting cells in hot Laemmli electrophoresis sample buffer. Proteins were then separated by SDS-polyacrylamide gel electrophoresis (SDS-PAGE) on 10% gel and transferred onto a nitrocellulose membrane in Bio.Rad Mini Trans-Blott Electrophoretic Transfer Cell for 2 hrs at 4° C. applying 150 mA in transfer buffer ([…], 190 mM glycine and 20% methanol). Prestained molecular weight markers (Bio-Rad) were run in parallel. […]
First, we determined appropriate concentration of 103 and 105 for our experiments. The MCF-7 (wt p53) cells were treated for 12 hrs with increasing concentrations of 105 ranging from 1 to 100 μM and analysed for p53 protein expression using monoclonal antibody DO-1 (FIG. 3A). […] We analysed the expression of p53 protein in MCF-7 (wt p53), BT549 (mut p53) and BT474 (mut p53) breast cancer cell lines, in HT29 (mut p53) colorectal cancer cell line and in ostaosarcoma cell line HOS (mut p53). […]

HAd4 [6] = assay: HAd4 yield reduction assay (multiple step growth curve) in A549 cells; details: culture medium; combination: until 72 hours after infection

With `CCC(CO)Nc1nc(NCc2ccccc2N)c2ncn(C(C)C)c2n1` (stereo not shown) [Compound 105, 2-({6-[(2-aminobenzyl)amino]-9-isopropyl-9H-purin-2-yl}amino)butan-1-ol] the “inhibition of virus replication (in words)” value (“inhibition” below) (HSV-1-deltaTK) was “remained sensitive”, the “inhibition” value (HSV-1) was “inhibited replication” and the IC50 [1] was 6.7 µM. For the same compound, the “expression from pHIV-lacZ (extrachromosomal location), β-galactosidase readout” value [2] was “inhibited”, the “inhibition” value (HAd4 [3]) was “inhibited HAd4 replication; also recorded: profound effect” and the IC50 (breast carcinoma MCF7) was 3.4 µM. The “inhibition” value (HCMV) was “equally sensitive”, the “blue-coloured cells (β-galactosidase activity, X-gal substrate)” value [4] was “about 25%” and the “induction of p53” value [5] was “No induction”. The “appearance of extracellular virus” value (HAd4 [6]) was “considerably delayed”.
